Results on 34 molecules are retold here after patent US8916183B2, “Pesticidal compositions and processes related thereto” (priority 2012, dated 2014).

For series [1], the system named is Green Peach Aphid (GPA) (Myzus persicae). Nature of the series: Bioassay on green peach aphid (GPA), foliar spray on cabbage seedlings. In kind it is in vivo. The settings on record: green peach aphid, 200 ppm, read-out: % Mortality GPA 200 ppm. In outline:
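Cabbage seedlings (2-3 true leaves), each infested a day earlier with 20-50 wingless adult and nymph GPA, were sprayed on both leaf sides to runoff, four pots per treatment. Corrected % control was calculated against solvent-check plants.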

The subject of series [2] is Corn Earworm (CEW) (Helicoverpa zea). In words: Bioassay on corn earworm (CEW), 128-well diet tray assay. In kind it is in vivo. The settings on record: Helicoverpa zea; corn earworm, 50 μg/cm^2; read-out: % Mortality CEW 50 μg/cm^2. In outline:
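Larvae in a 128-well diet tray were held at 25° C under 14:10 light-dark for five to seven days. Percent mortality was scored per well and averaged over eight wells, then reported on a rating scale.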

Series [3] concerns Beet Armyworm (BAW) (Spodoptera exigua). Nature of the series: Bioassay on beet armyworm (BAW), 128-well diet tray assay. In kind it is in vivo. The settings on record: Spodoptera exigua; beet armyworm, 50 μg/cm^2; read-out: % Mortality BAW 50 μg/cm^2.

As a reminder, the melting point is the temperature of the solid-liquid transition.

With `COc1ccc(N2CCCS/C2=N\N=C\c2ccc(-c3ncn(-c4ccc(OC(F)(F)F)cc4)n3)cc2)cc1` [Compound 202C], the mortality at 200 ppm in series [1] was 0 to 80%. Besides, the mortality at 50 µg/cm2 in series [2] and in series [3] was 50 to 100% in each case.

`Cc1cc(Br)cc(C)c1N1CCCS/C1=N\N=C\c1ccc(-c2ncn(-c3ccc(OC(F)(F)F)cc3)n2)cc1` [Compound 203C]: the mortality at 200 ppm in series [1] lay within 0 to 80%. The mortality at 50 µg/cm2 in series [2] and in series [3] was 50 to 100% each time.

For the molecule `COc1ccc(C)cc1N1CCCS/C1=N\N=C\c1ccc(-c2ncn(-c3ccc(OC(F)(F)F)cc3)n2)cc1` [Compound 204C], the mortality at 200 ppm in series [1] lay in the range of 0 to 80%. Also, the mortality at 50 µg/cm2 in series [2] and in series [3] was 50 to 100% each time.

`Cc1ncccc1N1CCCS/C1=N\N=C\c1ccc(-c2ncn(-c3ccc(OC(F)(F)F)cc3)n2)cc1` [Compound 205C]: the mortality at 200 ppm in series [1] was 0 to 80%. The mortality at 50 µg/cm2 in series [2] and in series [3] was 50 to 100% throughout.

As for `COc1cccc(N2CCCS/C2=N\N=C\c2ccc(-c3ncn(-c4ccc(OC(F)(F)F)cc4)n3)cc2)c1` [Compound 206C], the mortality at 200 ppm in series [1] was found to be 0%. In addition, the mortality at 50 µg/cm2 in series [2] and in series [3] was 50 to 100% each time.

As to `CCOc1ccccc1N1CCCS/C1=N\N=C\c1ccc(-c2ncn(-c3ccc(OC(F)(F)F)cc3)n2)cc1` [Compound 208C], the mortality at 200 ppm in series [1] was found to be 0%. In addition, the mortality at 50 µg/cm2 in series [2] and in series [3] was 50 to 100% each time.

Turning to `Cc1cccc(C)c1N1CCCCS/C1=N\N=C\c1ccc(-c2ncn(-c3ccc(OC(F)(F)F)cc3)n2)cc1` [Compound 211C], in series [1], the mortality at 200 ppm worked out at 0%. In addition, the mortality at 50 µg/cm2 in series [2] and in series [3] was 50 to 100% each time.

For `CC(C)c1ccccc1N1CCCCS/C1=N\N=C\c1ccc(-c2ncn(-c3ccc(OC(F)(F)F)cc3)n2)cc1` [Compound 212C], in series [1], the mortality at 200 ppm was 0%. In addition, the mortality at 50 µg/cm2 in series [2] and in series [3] was 50 to 100% each time.

`CCc1cccc(C)c1N1/C(=N/N=C/c2ccc(-c3ncn(-c4ccc(OC(F)(F)F)cc4)n3)cc2)SCCC1C` (stereo not drawn) [Compound 213C]: the mortality at 200 ppm in series [1] is 0 to 80%. The mortality at 50 µg/cm2 in series [2] and in series [3] was 50 to 100% throughout.

In the case of `CC(C)c1ccccc1N1C(=O)CCS/C1=N\N=C\c1ccc(-c2ncn(-c3ccc(OC(F)(F)F)cc3)n2)cc1` [Compound 224C], the mortality at 200 ppm in series [1] is 0 to 80%. The mortality at 50 µg/cm2 in series [2] and in series [3] was 50 to 100% in each case.

Turning to `CC1(O)CS/C(=N\N=C\c2ccc(-c3ncn(-c4ccc(OC(F)(F)F)cc4)n3)cc2)N1c1c(F)cccc1F` (stereo not drawn) [Compound 240C], in series [1], the mortality at 200 ppm turned out to be 0%. Further, the mortality at 50 µg/cm2 in series [2] and in series [3] was 50 to 100% each time.

As to `CC(C)c1ccccc1N1/C(=N/N=C/c2ccc(-c3ncn(-c4ccc(OC(F)(F)F)cc4)n3)cc2)SCC1(C)O` (stereo not drawn) [Compound 242C], the mortality at 200 ppm in series [1] lay within 0 to 80%. In addition, the mortality at 50 µg/cm2 in series [2] and in series [3] was 50 to 100% each time.

On to `CCC(C)c1ccccc1N1/C(=N/N=C/c2ccc(-c3ncn(-c4ccc(OC(F)(F)F)cc4)n3)cc2)SCC1(C)O` (stereo not drawn) [Compound 243C], for which, in series [1], the mortality at 200 ppm fell in the range of 0 to 80%. In addition, the mortality at 50 µg/cm2 in series [2] and in series [3] was 50 to 100% throughout.

`Cc1cccc(Cl)c1N1/C(=N/N=C/c2ccc(-c3ncn(-c4ccc(OC(F)(F)F)cc4)n3)cc2)SCC1(C)O` (stereo not drawn) [Compound 244C]: the mortality at 200 ppm in series [1] is 0%. Moreover, the mortality at 50 µg/cm2 in series [2] and in series [3] was 50 to 100% in each case.

As for `COc1ccc(N2/C(=N/N=C/c3ccc(-c4ncn(-c5ccc(OC(F)(F)F)cc5)n4)cc3)SCC2(C)O)c(C)c1` (stereo not drawn) [Compound 245C], the mortality at 200 ppm in series [1] lay within 0 to 80%. Further, the mortality at 50 µg/cm2 in series [2] and in series [3] was 50 to 100% each time.

Take `Cc1ccccc1N1/C(=N/N=C/c2ccc(-c3ncn(-c4ccc(OC(F)(F)F)cc4)n3)cc2)SCC1(C)O` (stereo not drawn) [Compound 248C]: in series [1], the mortality at 200 ppm lay in the range of 0 to 80%. Also, the mortality at 50 µg/cm2 in series [2] and in series [3] was 50 to 100% in each case.

With `CC(C)c1cccc(F)c1N1/C(=N/N=C/c2ccc(-c3ncn(-c4ccc(OC(F)(F)F)cc4)n3)cc2)SCC1(C)O` (stereo not drawn) [Compound 250C], the mortality at 200 ppm in series [1] lay in the range of 0 to 80%. Besides, the mortality at 50 µg/cm2 in series [2] and in series [3] was 50 to 100% throughout.

`Cc1ccc(N2/C(=N/N=C/c3ccc(-c4ncn(-c5ccc(OC(F)(F)F)cc5)n4)cc3)SCC2(C)O)c(C(C)C)c1` (stereo not drawn) [Compound 251C]: the mortality at 200 ppm in series [1] lay within 0 to 80%. Moreover, the mortality at 50 µg/cm2 in series [2] and in series [3] was 50 to 100% each time.

As to `Cc1ccc(C(C)C)c(N2/C(=N/N=C/c3ccc(-c4ncn(-c5ccc(OC(F)(F)F)cc5)n4)cc3)SCC2(C)O)c1` (stereo not drawn) [Compound 253C], the mortality at 200 ppm in series [1] was 0%. In addition, the mortality at 50 µg/cm2 in series [2] and in series [3] was 50 to 100% each time.

With `CCc1ccccc1N1/C(=N/N=C/c2ccc(-c3ncn(-c4ccc(OC(F)(F)F)cc4)n3)cc2)SCC1(C)O` (stereo not drawn) [Compound 254C], the mortality at 200 ppm in series [1] was 0 to 80%. For the same molecule, the mortality at 50 µg/cm2 in series [2] and in series [3] was 50 to 100% each time.

For `COc1cc(C)c(N2/C(=N/N=C/c3ccc(-c4ncn(-c5ccc(OC(F)(F)F)cc5)n4)cc3)SCC2(C)O)c(C)c1` (stereo not drawn) [Compound 255C], the mortality at 200 ppm in series [1] was found to be 0%. Moreover, the mortality at 50 µg/cm2 in series [2] and in series [3] was 50 to 100% throughout.

With `CCCc1ccccc1N1/C(=N/N=C/c2ccc(-c3ncn(-c4ccc(OC(F)(F)F)cc4)n3)cc2)SCC1(C)O` (stereo not drawn) [Compound 256C], the mortality at 200 ppm in series [1] fell in the range of 0 to 80%. The mortality at 50 µg/cm2 in series [2] and in series [3] was 50 to 100% in each case.

Turning to `CC(C)c1ccccc1N1/C(=N/N=C/c2ccc(-c3ncn(-c4ccc(OC(F)(F)F)cc4)n3)cc2)SC(C)C1(C)O` (stereo not drawn) [Compound 257C], in series [1], the mortality at 200 ppm is 0%. Moreover, the mortality at 50 µg/cm2 in series [2] and in series [3] was 50 to 100% each time.

`CC(C)c1cc(F)c(F)cc1N1/C(=N/N=C/c2ccc(-c3ncn(-c4ccc(OC(F)(F)F)cc4)n3)cc2)SCC1(C)O` (stereo not drawn) [Compound 259C]: the mortality at 200 ppm in series [1] was determined as 0%. In addition, the mortality at 50 µg/cm2 in series [2] and in series [3] was 50 to 100% in each case.

Consider `CC(C)c1ccccc1N1/C(=N/N=C/c2ccc(-c3ncn(-c4ccc(C(F)(C(F)(F)F)C(F)(F)F)cc4)n3)cc2)SCC1(C)O` (stereo not drawn) [Compound 260C], for which, in series [1], the mortality at 200 ppm came to 0%. Also, the mortality at 50 µg/cm2 in series [2] and in series [3] was 50 to 100% throughout.

Take `CC(C)c1ccccc1N1/C(=N/N=C/c2ccc(-c3ncn(-c4ccc(C(F)(F)F)cc4)n3)cc2)SCC1(C)O` (stereo not drawn) [Compound 261C]: in series [1], the mortality at 200 ppm was 0%. Moreover, the mortality at 50 µg/cm2 in series [2] and in series [3] was 50 to 100% in each case.

As to `CC(C)c1ccccc1N1/C(=N/N=C/c2ccc(-c3ncn(-c4ccc(OC(F)(F)C(F)(F)F)cc4)n3)cc2)SCC1(C)O` (stereo not drawn) [Compound 262C], in series [1], the mortality at 200 ppm is 0 to 80%. Further, the mortality at 50 µg/cm2 in series [2] and in series [3] was 50 to 100% each time.

`CC(C)c1ccccc1N1/C(=N/N=C/c2ccc(-c3ncn(-c4ccc(OC(F)(F)F)cc4)n3)cc2)SCC1(O)c1ccccc1C(F)(F)F` (stereo not drawn) [Compound 263C]: the mortality at 200 ppm in series [1] lay in the range of 0 to 80%. The mortality at 50 µg/cm2 in series [2] and in series [3] was 50 to 100% throughout.

Molecule `FC(F)(F)Oc1ccc(-n2cnc(-c3ccc(/C=N/NC(=S)Nc4ccccc4C4CCCC4)cc3)n2)cc1` [Compound I-35] gave a melting point of 213 to 216 °C.

As to `Cc1cccc(NC(=S)N/N=C/c2ccc(-c3ncn(-c4ccc(OC(F)(F)F)cc4)n3)cc2)c1C(C)C` [Compound I-43], the melting point lay in the range of 219 to 222 °C.

As to `Cc1ccc(C(C)C)c(NC(=S)NN)c1` [Compound I-46], the melting point was 167 to 169 °C.

`CC(C)c1cc(F)ccc1NC(=S)NN` [Compound I-50] returned a melting point of 163 to 167 °C.

`CC(C)c1cc(F)c(F)cc1NC(=S)NN` [Compound I-54] registered a melting point of 169 to 170 °C.

Take `CC(C)c1cc(F)c(F)cc1NC(=S)N/N=C/c1ccc(-c2ncn(-c3ccc(OC(F)(F)F)cc3)n2)cc1` [Compound I-55]: the melting point lay in the range of 217 to 221 °C.
